Experimental data: US20080279936A1, “Estradiol metabolites for reduction of endothelin production” (The University of Pittsburgh, priority 2001, published 2008)
Read-outs that look alike come from different tables or passages of the source.

Assays:
[1] = system: endothelin-1 (ET-1) synthesis in porcine coronary artery endothelial cells (PCAECs); assay: Stimulated (FCS, angiotensin II, thrombin, TNFα) ET-1 release into the medium by PCAECs (ELISA); format: cell-based; set-up: induction of ET-1 secretion (percentage increase vs vehicle-treated controls): dose or concentration left out as unconfirmed; conditions: for induction of ET-1 secretion (percentage increase vs vehicle-treated controls): stimulus alone; for reversal by ICI182780 of the compound's inhibitory effect on FCS-stimulated ET-1 secretion: ICI182780 50 μmol/L; for inhibition of FCS-induced ET-1 secretion / inhibition of TNFα-induced ET-1 secretion / inhibition of angiotensin II-induced ET-1 secretion / inhibition of thrombin-induced ET-1 secretion / inhibition at 0.001 µM: 1 nmol/L; for effectiveness in inhibiting basal and stimulated ET-1 secretion compared with estradiol: order of potency 2-methoxyestradiol>2-hydroxyestradiol>estradiol; for effect on FCS-induced ET-1 synthesis: 10 nmol/L; for inhibition at 0.001 µM: Sus scrofa, Endothelial cell
Source text: (§1) Hearts from female pigs were obtained from a local slaughter house and placed in ice-cold oxygenated DMEM (Gibco, Rockville, Md. now Invitrogen, Carlsbad Calif., hereinafter “Gibco”) containing antibiotics (Gibco). The epicardial coronary arteries were isolated, and the fat and connective tissue were removed. Endothelial cells were isolated by collagenase/dispase digestion (Ohbayashi, A., et al., Biochem. Brophys. Res. Commun. 202:504 (1994), the disclosure of which is incorporated herein be reference (“Ohbayashi, et al.”)). The isolated cells were washed in DMEM/F12 medium (Gibco) supplemented with 10% fetal calf serum (“FCS”) (HyClone Laboratories, Logan, Utah) and endothelial cell growth supplement (Clonetics, Walkersville, Md.), and cells were grown to confluence under standard tissue culture conditions. The purity of the cultures, which was characterized by immunostaining with factor VIII antigen (Sigma, St. Louis, Mo.) and by assaying the preferential uptake of the fluorescent probe Dil-acetylated low density lipoprotein (Biomedical Technologies, Inc., Stoughton, Mass.), (Ohbayashi, et al.) was 98%. Cells were passaged by trypsinization, and cells in second and third passage were used for all experiments in this example.
(§2) To study the effects of estradiol and its metabolites on ET-1 synthesis in porcine coronary artery endothelial cells (“PCAECs”) (Gibco), confluent monolayers of PCAECs were washed twice with HBSS (Gibco) and treated with DMEM/F12 (gibco) supplemented with 0.4% bovine serum albumin (BSA) containing or lacking 0.001 to 1 μmol/L of estradiol, 2-hydroxyestradiol, or 2-methoxyestradiol (Steraloids, Newport, R.I.). […] The supernatants were collected for ET-1 analysis, and the samples were frozen at −70° C. until analyzed. ET-1 levels were measured with the BIOTRAK™ (Amersham Pharmacia Biotech Europe Gmbh, Dubendorf, Switzerland) high-sensitivity endothelin-1 human ELISA system.
Cells were also treated as above in the presence and absence of the estradiol receptor (“ER”) antagonist, ICI182780 (50 μmol/L; Tocris Cookson Ltd, Ballwin, Mo.). To analyze whether the inhibitory effects of estradiol were mediated by means of ER-β, the effects of genistein (0.001 to 10 μmol/L) (Sigma) were investigated. To evaluate whether the effects of estradiol were mimicked by various clinically used estrogens, the cells were treated as above, in the presence and absence of ICI182780, with 10 nmol/L of estradiol valerate, estradiol cypionate, estradiol benzoate, 17α-estradiol, estrone, estriol or estrone sulfate (all from Sigma), and the ET-1 synthesis in response to FCS (2.5%) was analyzed.

[2] = system: mitogen-activated protein kinase (MAPK) activity in PCAECs; assay: FCS-induced MAPK activity in PCAECs; format: cell-based, porcine
Source text: Hearts from female pigs were obtained from a local slaughter house and placed in ice-cold oxygenated DMEM (Gibco, Rockville, Md. now Invitrogen, Carlsbad Calif., hereinafter “Gibco”) containing antibiotics (Gibco). The epicardial coronary arteries were isolated, and the fat and connective tissue were removed. Endothelial cells were isolated by collagenase/dispase digestion (Ohbayashi, A., et al., Biochem. Brophys. Res. Commun. 202:504 (1994), the disclosure of which is incorporated herein be reference (“Ohbayashi, et al.”)). […] The purity of the cultures, which was characterized by immunostaining with factor VIII antigen (Sigma, St. Louis, Mo.) and by assaying the preferential uptake of the fluorescent probe Dil-acetylated low density lipoprotein (Biomedical Technologies, Inc., Stoughton, Mass.), (Ohbayashi, et al.) was 98%. Cells were passaged by trypsinization, and cells in second and third passage were used for all experiments in this example. […] Some cells were pretreated for 1 hour with ICI182780 before treatment with the test agents. After stimulation, the cells were washed with ice-cold PBS and extraction buffer (50 mmol/L β-glycerophosphate, 1.5 mmol/L EGTA, 1 mmol/L dithiothreitol, 100 μmol/L Na3VO4, 10 μg/mL aprotinin, 5 μg/mL pepstatin, […] leupeptin, and 1 mmol/L benzamidine) (all from Sigma), scraped off the plates, and sonicated for 20 seconds in 0.5 mL of extraction buffer. The extracts were collected, the cytosolic fractions were separated by centrifuging the extracts at 100,000×g for 20 minutes at 4° C., and the supernatants were diluted to a concentration of 1 mg protein/mL and stored at -70° C. for mitogen-activated protein kinase (“MAPK”) activity assays. The MAPK activity in the cytosolic extracts was quantified as described by Dubey, R. K., et al., Arterioscler. Thromb. Vasc. Biol. 20:964 (2000), the disclosure of which is incorporated herein by reference.

[3] = system: endothelin-1 (ET-1) synthesis in porcine coronary artery endothelial cells (PCAECs); assay: Basal ET-1 release into the medium by PCAECs (ELISA); format: cell-based; conditions: for effect on basal ET secretion: 2 nmol/L, PCAECs incubated 4, 8, 12 and 24 hours
Source text: as §1, §2
To analyze the effects of estradiol and its metabolites on the basal synthesis of ET-1, cells were pretreated with or without the various above-listed agents and with and without ICI182780 for 24 hours and were fed fresh DMEM/F12 supplemented with 0.4%; BSA (Sigma) and the respective treatments. The supernatants were collected after 4, 8, 12, and 24 hours and the ET-1 levels were analyzed.

[4] = 1 nmol/L, pretreated 24 hours, FCS 2.5%
[5] = angiotensin II 100 nmol/L, 4 hours

“angiotensin II [stimulatory agent for ET-1 secretion]” was tested. Which “induction of ET-1 secretion (percentage increase vs vehicle-treated controls)” value ([1]; 4 hours) did it give?
The value was 116±7%.

For `O=c1c(-c2ccc(O)cc2)coc2cc(O)cc(O)c12` [Genistein, genistein], which “concentrations at which inhibitory effects on ET-1 secretion were observed” value ([1]; FCS 2.5%-stimulated, 4 hours, tested 0.001 to 10 μmol/L) is on record?
The value was ≥ 1 µmol/L.

And the “reversal by ICI182780 of the compound's inhibitory effect on FCS-stimulated ET-1 secretion” value ([1]; FCS 2.5%, 4 hours)?
Its value is “not reversed”.

Which results are given for `C[C@]12CC[C@@H]3c4cc(O)c(O)cc4CC[C@H]3[C@@H]1CC[C@@H]2O` [2-hydroxyestradiol, estra-1,3,5 (10)-triene-2,3,17-triol (17β)]?
inhibition of FCS-induced MAPK activity [2, 4]: 34±4%; potency in inhibiting FCS-induced MAPK activity compared with estradiol ([2]; pretreated 24 hours, FCS 2.5%): more potent; inhibition of FCS-induced ET-1 secretion ([1]; FCS 2.5%, 4 hours): 31%; inhibition of TNFα-induced ET-1 secretion ([1]; TNFα 10 ng/mL, 4 hours): 35%; inhibition of angiotensin II-induced ET-1 secretion [1, 5]: 33%; inhibition of thrombin-induced ET-1 secretion ([1]; thrombin 4 U/mL, 4 hours): 40%; reversal by ICI182780 of the compound's inhibitory effect on FCS-stimulated ET-1 secretion ([1]; FCS 2.5%, 4 hours): not; effectiveness in inhibiting basal and stimulated ET-1 secretion compared with estradiol [1]: more effective; effect on basal ET secretion [3]: inhibited

For estrone sulfate, which “effect on FCS-induced ET-1 synthesis” value ([1]; FCS 2.5%, 4 hours) is on record?
The value was “unable to lower ET-1 secretion”.

`COc1cc2c(cc1O)CC[C@@H]1[C@@H]2CC[C@]2(C)[C@@H](O)CC[C@@H]12` [2-methoxyestradiol, estra-1,3,5 (10)-triene-2-methoxy-3,17-diol (17β)] was tested. Which “inhibition of FCS-induced MAPK activity” value [2, 4] did it give?
The value was 46±4.7%.

What about the “potency in inhibiting FCS-induced MAPK activity compared with estradiol” value ([2]; pretreated 24 hours, FCS 2.5%) of the same compound?
Its value is “more potent”.

And the “inhibition of FCS-induced ET-1 secretion” value ([1]; FCS 2.5%, 4 hours)?
The value was 44%.

What about the “inhibition of TNFα-induced ET-1 secretion” value ([1]; TNFα 10 ng/mL, 4 hours) of the same compound?
Its value is 56%.

What about the “inhibition of angiotensin II-induced ET-1 secretion” value [1, 5] of the same compound?
The value was 39%.

What about the “inhibition of thrombin-induced ET-1 secretion” value ([1]; thrombin 4 U/mL, 4 hours) of the same compound?
The value was 46%.

What about the “reversal by ICI182780 of the compound's inhibitory effect on FCS-stimulated ET-1 secretion” value ([1]; FCS 2.5%, 4 hours) of the same compound?
Its value is “not”.

What about the “effectiveness in inhibiting basal and stimulated ET-1 secretion compared with estradiol” value [1] of the same compound?
Its value is “more effective”.

And the “effect on basal ET secretion” value [3]?
The value was “inhibited”.

`C[C@]12CC[C@@H]3c4ccc(O)cc4CC[C@H]3[C@@H]1CC[C@H]2O` [17α-estradiol] was tested. Which “effect on FCS-induced ET-1 synthesis” value ([1]; FCS 2.5%, 4 hours) did it give?
The value was “unable to lower ET-1 secretion”.

How did the “effect of compound alone on basal or FCS-stimulated ET-1 synthesis” value ([1]; 50 μmol/L) turn out when `C[C@]12CC[C@@H]3c4ccc(O)cc4C[C@@H](CCCCCCCCC[S+]([O-])CCCC(F)(F)C(F)(F)F)[C@H]3[C@@H]1CC[C@@H]2O` (some centres unmarked) [ICI182780] was run?
The value was “did not influence”.

Which results are given for `C[C@]12CC[C@@H]3c4ccc(OC(=O)c5ccccc5)cc4CC[C@H]3[C@@H]1CC[C@@H]2O` [estradiol benzoate]?
effect on FCS-induced ET-1 synthesis ([1]; FCS 2.5%, 4 hours): inhibited; reversal by ICI182780 of the compound's inhibitory effect on FCS-stimulated ET-1 secretion ([1]; FCS 2.5%, 4 hours): reversed

What does the source list for `C[C@]12CC[C@@H]3c4ccc(O)cc4CC[C@H]3[C@@H]1CC[C@@H]2OC(=O)CCC1CCCC1` [estradiol cypionate]?
effect on FCS-induced ET-1 synthesis ([1]; FCS 2.5%, 4 hours): inhibited; reversal by ICI182780 of the compound's inhibitory effect on FCS-stimulated ET-1 secretion ([1]; FCS 2.5%, 4 hours): reversed

For `CCCCC(=O)O[C@H]1CC[C@H]2[C@@H]3CCc4cc(O)ccc4[C@H]3CC[C@]12C` [estradiol valerate], which “effect on FCS-induced ET-1 synthesis” value ([1]; FCS 2.5%, 4 hours) is on record?
Its value is “inhibited”.

What about the “reversal by ICI182780 of the compound's inhibitory effect on FCS-stimulated ET-1 secretion” value ([1]; FCS 2.5%, 4 hours) of the same compound?
Its value is “reversed”.

Which “reversal by ICI182780 of the compound's inhibitory effect on FCS-induced MAPK activity” value ([2]; ICI182780 50 μmol/L pretreatment, compound 10 nmol/L) does the source give for `C[C@]12CC[C@@H]3c4ccc(O)cc4CC[C@H]3[C@@H]1CC[C@@H]2O` [estradiol, 17β-estradiol] here?
Its value is “completely reversed”.

And the inhibition at 0.001 µM ([2]; Sus scrofa, 1 nmol/L, pretreated 24 hours, FCS 2.5%)?
Its inhibition at 0.001 µM is 19 ± 2.6%.

What about the “ET-1 secretion induced in response to FCS (percentage increase) in presence of compound” value ([1]; 1 nmol/L compound, FCS 2.5%, 4 hours, control 138±16%) of the same compound?
Its value is 82±8%.

And the “ET-1 secretion induced in response to TNFα (percentage increase) in presence of compound” value ([1]; 1 nmol/L compound, TNFα 10 ng/mL, 4 hours, control 120±8%)?
Its value is 68±5%.

And the “ET-1 secretion induced in response to angiotensin II (percentage increase) in presence of compound” value ([1]; 1 nmol/L compound, angiotensin II 100 nmol/L, 4 hours, control 116±7%)?
Its value is 73±6%.

And the “ET-1 secretion induced in response to thrombin (percentage increase) in presence of compound” value ([1]; 1 nmol/L compound, thrombin 4 U/mL, 4 hours, control 98±6%)?
Its value is 53±4%.

What about the “reversal by ICI182780 of the compound's inhibitory effect on FCS-stimulated ET-1 secretion” value ([1]; FCS 2.5%, 4 hours) of the same compound?
The value was “completely blocked”.

And the inhibition at 0.001 µM ([1]; FCS 2.5%, 4 hours, read-out: inhibition of FCS-induced ET-1 secretion)?
Its inhibition at 0.001 µM is 22%.

What about the inhibition at 0.001 µM ([1]; TNFα 10 ng/mL, 4 hours, read-out: inhibition of TNFα-induced ET-1 secretion) of the same compound?
The inhibition at 0.001 µM was 26%.

What about the inhibition at 0.001 µM ([1]; angiotensin II 100 nmol/L, 4 hours, read-out: inhibition of angiotensin II-induced ET-1 secretion) of the same compound?
Its inhibition at 0.001 µM is 20%.

What about the inhibition at 0.001 µM ([1]; thrombin 4 U/mL, 4 hours, read-out: inhibition of thrombin-induced ET-1 secretion) of the same compound?
Its inhibition at 0.001 µM is 24%.

What about the “effect on basal ET secretion” value [3] of the same compound?
Its value is “inhibited”.

What about the inhibition at 0.002 µM ([3]; Sus scrofa, Endothelial cell, 8 h, read-out: inhibition of basal synthesis of ET-1) of the same compound?
The inhibition at 0.002 µM was 19 ± 2%.

For thrombin, which “induction of ET-1 secretion (percentage increase vs vehicle-treated controls)” value ([1]; 4 hours) is on record?
The value was 98±5%.

For TNFα, which “induction of ET-1 secretion (percentage increase vs vehicle-treated controls)” value ([1]; 4 hours) is on record?
The value was 120±8%.

How did the “effect on FCS-induced ET-1 synthesis” value ([1]; FCS 2.5%, 4 hours) turn out when `C[C@]12CC[C@@H]3c4ccc(O)cc4CC[C@H]3[C@@H]1C[C@@H](O)[C@@H]2O` [estriol] was run?
The value was “unable to lower ET-1 secretion”.

For `COc1cccc(-c2cc(=O)c3ccccc3o2)c1N` [PD98059], which MAPK activity ([2]; growth-arrested cells, FCS 2.5% for 10 minutes, unstimulated 0.187, PD98059 at 10 μmol/L) is on record?
Its MAPK activity is 0.7 μmol/min/mg protein.
